According to US20250101034A1, “COMPOSITIONS USEFUL FOR MODULATING SPLICING” (SKYHAWK THERAPEUTICS, INC., priority 2021, published 2025):

Key:
[1] = tested on: ATXN3 transcripts containing exon 4 (E4E5); assay: ATXN3 quantitative splicing assay (qPCR, SK-N-MC cells); type: cell-based; details: Homo sapiens, 24 h treatment, qPCR E4E5 primers/probe, read-out: ATXN3 Potency - Splicing E4E5 IC50
Experimental: Human neuroblastoma SK-N-MC cells were plated in 384-well plates at 20,000 cells/well. Twenty-four hours after plating, cells were treated with compounds for 24 h at appropriate concentrations ranging from 30 μM to 0.6 nM (0.3% DMSO). Treated cells were lysed in 15 μL of lysis buffer, and cDNA was synthesized using the Fast Advanced Cells-to-Ct kit. Two μL of each cDNA was used in qPCR reactions to confirm the exon 4 skipped transcripts of ATXN3. A second set of primers/probe E4E5 was used to detect the transcripts containing exon 4. The third set of primers/probe E8E9 was used to detect total gene level of ATXN3. The qPCR reactions were prepared in 384-well plates in 10 μL volume, using TaqMan™ Fast Advanced Master Mix with primers and probes shown in the table below. Reactions were run in a Quant Studio 6 qPCR instrument with default settings.
The primers and probes are listed below in Table 4.

[2] = tested on: total ATXN3 protein; assay: ATXN3 total protein assay (MSD, SK-N-MC cells); type: cell-based, Human; details: 48 hours incubation, read-out: ATXN3 Potency - Protein IC50
Experimental: Human neuroblastoma SK-N-MC cells were seeded at 10,000 cells/well in 384 well plates one day prior to compound treatment. The concentrations of compounds were tested at appropriate doses ranging from 30 μM to 0.6 nM. After incubation for 48 hours, the cells were lysed with 25 μL of lysis buffer containing protease inhibitors, and total ATXN3 protein levels were assessed by Mesoscale Discovery (MSD) assay developed with one pair of anti-ATXN3 antibodies. The capture and detect antibodies were raised in mouse and rabbit respectively. Anti-rabbit MSD-ST antibody was used for secondary antibody.
ATXN3 recombinant protein was used for standards. The readouts were captured with 35 μL of MSD read buffer and multi-array 384-well high binding plates.

IC50 [1] [µM] | IC50 [2] [µM] | SMILES
10 to 40 | 10 to 40 | Cc1c(C[C@@H](N)COC(F)(F)F)sc2c(NCc3cccs3)cnnc12 [Compound 132, 6-[(2R)-2-amino-3-(trifluoromethoxy)propyl]-7-methyl-N-[(thiophen-2-yl)methyl]thieno[3,2-c]pyridazin-4-amine]
10 to 40 | 10 to 40 | Cc1c(CC(N)=O)sc2c(NCc3cccs3)cnnc12 [Compound 105, 2-(7-methyl-4-{[(thiophen-2-yl)methyl]amino}thieno[3,2-c]pyridazin-6-yl)acetamide]
10 to 40 | 10 to 40 | CCc1csc2c(NCc3cccs3)cnnc12 [Compound 40, 7-ethyl-N-[(thiophen-2-yl)methyl]thieno[3,2-c]pyridazin-4-amine]
10 to 40 | 10 to 40 | Cc1c(CC(C)CN)sc2c(NCc3cccs3)cnnc12 (centres unmarked) [Compound 104, 6-(3-amino-2-methylpropyl)-7-methyl-N-[(thiophen-2-yl)methyl]thieno[3,2-c]pyridazin-4-amine]
10 to 40 | 10 to 40 | Cc1c(CO)sc2c(NCc3cccs3)cnnc12 [Compound 114, (7-methyl-4-{[(thiophen-2-yl)methyl]amino}thieno[3,2-c]pyridazin-6-yl)methanol]
5 to 10 | 5 to 10 | Cc1c([C@@H](O)[C@H](C)N)sc2c(NCc3cccs3)cnnc12 (single isomer, unassigned) [Compound 42]
10 to 40 | 10 to 40 | Cc1c(C(C)(C)O)sc2c(NCc3cccs3)cnnc12 [Compound 65, 2-{7-methyl-4-[(thiophen-2-ylmethyl)amino]thieno [3,2-c]pyridazin-6-yl}propan-2-ol]
10 to 40 | 10 to 40 | Cc1csc2c(NCc3cccs3)c(Br)nnc12 [Compound 87, 3-bromo-7-methyl-N-[(thiophen-2-yl)methyl]thieno[3,2-c]pyridazin-4-amine]
10 to 40 | 10 to 40 | Cc1csc2c(NC(=O)c3cccs3)cnnc12 [Compound 89, N-{7-methylthieno[3,2-c]pyridazin-4-yl}thiophene-2-carboxamide]
0.101 to 0.5 | 0.101 to 0.5 | N[C@@H](CO)Cc1sc2c(NCc3ccco3)cnnc2c1Cl [Compound 96, (2R)-2-amino-3-(7-chloro-4-{[(furan-2-yl)methyl]amino}thieno[3,2-c]pyridazin-6-yl)propan-1-ol]
10 to 40 | 10 to 40 | Cc1c(CC2(N)COC2)sc2c(NCc3cccs3)cnnc12 [Compound 92, 6-[(3-aminooxetan-3-yl)methyl]-7-methyl-N-[(thiophen-2-yl)methyl]thieno[3,2-c]pyridazin-4-amine]
0.501 to 5 | 0.501 to 5 | Cc1c(C[C@@H](N)CO)sc2c(NCc3ccco3)cnnc12 [Compound 1, (2R)-2-amino-3-(4-{[(furan-2-yl)methyl]amino}-7-methylthieno[3,2-c]pyridazin-6-yl)propan-1-ol]
0.101 to 0.5 | 0.101 to 0.5 | N[C@@H](CO)Cc1sc2c(NCc3cccs3)cnnc2c1Br [Compound 94, (2R)-2-amino-3-(7-bromo-4-{[(thiophen-2-yl)methyl]amino}thieno[3,2-c]pyridazin-6-yl)propan-1-ol]
10 to 40 | 10 to 40 | Cc1c([C@@H](C)[C@H](C)N)sc2c(NCc3cccs3)cnnc12 [Compound 25]
10 to 40 | 10 to 40 | Cc1c(CCN)sc2c(NCc3ccco3)cnnc12 [Compound 21, 6-(2-aminoethyl)-N-[(furan-2-yl)methyl]-7-methylthieno[3,2-c]pyridazin-4-amine]
0.501 to 5 | 0.501 to 5 | Cc1c(C[C@@H](N)CCF)sc2c(NCc3cccs3)cnnc12 [Compound 48, 6-[(2S)-2-amino-4-fluorobutyl]-7-methyl-N-(thiophen-2-ylmethyl)thieno[3,2-c]pyridazin-4-amine]
10 to 40 | 10 to 40 | Cc1c(CC2CNC2)sc2c(NCc3cccs3)cnnc12 [Compound 73, 6-[(azetidin-3-yl)methyl]-7-methyl-N-[(thiophen-2-yl)methyl]thieno[3,2-c]pyridazin-4-amine]
0.501 to 5 | 0.501 to 5 | CSC[C@H](N)Cc1sc2c(NCc3ccco3)cnnc2c1C [Compound 30, 6-[(2R)-2-amino-3-(methylsulfanyl)propyl]-N-[(furan-2-yl)methyl]-7-methylthieno[3,2-c]pyridazin-4-amine]
10 to 40 | 10 to 40 | Cc1c(C[C@@H]2CCN2)sc2c(NCc3cccs3)cnnc12 [Compound 71, 6-{[(2S)-azetidin-2-y1]methyl}-7-methyl-N-[(thiophen-2-yl)methyl]thieno[3,2-c]pyridazin-4-amine]
5 to 10 | 5 to 10 | Cc1c(C[C@@H](N)C2CC2)sc2c(NCc3ccco3)cnnc12 [Compound 64, 6-[(2R)-2-amino-2-cyclopropylethyl]-N-[(furan-2-yl)methyl]-7-methylthieno[3,2-c]pyridazin-4-amine]
10 to 40 | 10 to 40 | Clc1csc2c(NCc3cccs3)cnnc12 [Compound 67, 7-chloro-N-[(thiophen-2-yl)methyl]thieno[3,2-c]pyridazin-4-amine]
 | 10 to 40 | Cc1c(C[C@@H]2CCCN2)sc2c(NCc3cccs3)cnnc12 [Compound 70, 7-methyl-6-{[(2S)-pyrrolidin-2-yl]methyl}-N-[(thiophen-2-yl)methyl]thieno[3,2-c]pyridazin-4-amine]
 | 10 to 40 | CC(=O)CCc1sc2c(NCc3cccs3)cnnc2c1C [Compound 88, 4-{7-methyl-4-[(thiophen-2-ylmethyl)amino]thieno[3,2-c]pyridazin-6-yl}butan-2-one]

SMILES | IC50 [1] [µM] | IC50 [2] [µM]
CC#Cc1c(C[C@H](C)N)sc2c(NCc3cccs3)cnnc12 [Compound 107, 6-[(2S)-2-aminopropyl]-7-(prop-1-yn-1-yl)-N-[(thiophen-2-yl)methyl]thieno[3,2-c]pyridazin-4-amine] | 0.101 to 0.5 | 0.101 to 0.5
Cc1c(C[C@H](C)N)sc2c(NCc3ccc(F)s3)cnnc12 [Compound 16, 6-[(2S)-2-aminopropyl]-N-[(5-fluorothiophen-2-yl)methyl]-7-methylthieno[3,2-c]pyridazin-4-amine] | 0.501 to 5 | 0.501 to 5
Cc1c(C[C@H](C)N)sc2c(Nc3cccs3)cnnc12 [Compound 82, 6-[(2S)-2-aminopropyl]-7-methyl-N-(thiophen-2-yl)thieno[3,2-c]pyridazin-4-amine] | 10 to 40 | 10 to 40
C[C@H](N)Cc1cc2nncc(NCc3cccs3)c2s1 [Compound 39, 6-[(2S)-2-aminopropyl]-N-[(thiophen-2-yl)methyl]thieno[3,2-c]pyridazin-4-amine] | 0.501 to 5 | 0.501 to 5
Cc1csc(CNc2cnnc3c(C)c(C[C@H](C)N)sc23)c1 [Compound 79, 6-[(2S)-2-aminopropyl]-7-methyl-N-[(4-methylthiophen-2-yl)methyl]thieno[3,2-c]pyridazin-4-amine] |  | 10 to 40
Cc1c(C[C@H](C)N)sc2c(NCc3cncs3)cnnc12 [Compound 44, 6-[(2S)-2-aminopropyl]-7-methyl-N-[(1,3-thiazol-5-yl)methyl]thieno[3,2-c]pyridazin-4-amine] | 10 to 40 | 10 to 40
COc1nnc2c(C)c(C[C@H](C)N)sc2c1NCc1cccs1 [Compound 86, 6-[(2S)-2-aminopropyl]-3-methoxy-7-methyl-N-[(thiophen-2-yl)methyl]thieno[3,2-c]pyridazin-4-amine] | 10 to 40 | 10 to 40
C[C@H](N)Cc1sc2c(N[C@H](C)c3cccs3)cnnc2c1Br [Compound 113, 6-[(2S)-2-aminopropyl]-7-bromo-N-[(1R)-1-(thiophen-2-yl)ethyl]thieno[3,2-c]pyridazin-4-amine] | 10 to 40 | 10 to 40
C#Cc1c(C[C@H](C)N)sc2c(NCc3cccs3)cnnc12 [Compound 116, 6-[(2S)-2-aminopropyl]-7-ethynyl-N-[(thiophen-2-yl)methyl]thieno[3,2-c]pyridazin-4-amine] | 1e-05 to 0.1 | 0.101 to 0.5
Cc1c(C[C@H](C)N)sc2c(NCn3cccn3)cnnc12 [Compound 15, 6-[(2S)-2-aminopropyl]-7-methyl-N-[(1H-pyrazol-1-yl)methyl]thieno[3,2-c]pyridazin-4-amine] | 0.501 to 5 | 0.501 to 5
Cc1ccsc1CNc1cnnc2c(C)c(C[C@H](C)N)sc12 [Compound 78, 6-[(2S)-2-aminopropyl]-7-methyl-N-[(3-methylthiophen-2-yl)methyl]thieno[3,2-c]pyridazin-4-amine] |  | 10 to 40
Cc1ccc(CNc2cnnc3c(C)c(C[C@H](C)N)sc23)s1 [Compound 77, 6-[(2S)-2-aminopropyl]-7-methyl-N-[(5-methylthiophen-2-yl)methyl]thieno[3,2-c]pyridazin-4-amine] |  | 10 to 40
